{"source": "paper PMC3769509", "about": "(Nuclear medicine and biology, 2013)", "key": {"[1]": {"settings": "epilepsy patients, after intravenous infusions; cited from earlier work"}, "[2]": {"test": "PET studies: brain pharmacokinetics", "settings": "baboon, iv"}, "[3]": {"test": "PET studies: biodistribution in peripheral organs", "settings": "baboon, iv"}, "[4]": {"test": "PET studies: plasma analysis of unchanged radiotracer", "settings": "baboon, iv; for fraction of radioactivity in plasma as unmetabolized compound: 30 min after administration"}, "Free fraction in plasma": {"test": "Free fraction in plasma", "type": "in vitro ADME", "settings": "baboon plasma"}, "[5]": {"test": "Ex vivo rat brain analysis after [11C]BA administration", "type": "in vivo", "settings": "5 min and 30 min after administration, data not shown"}, "Lipophilicity at pH 7.4": {"test": "Lipophilicity at pH 7.4", "type": "physicochemical"}, "[6]": {"settings": "parent and/or labeled metabolites"}}, "note": "Values joined by “and” are separate entries in the source; they are usually repeats but may differ in a detail not shown here. Equal values may be shown once.", "data": [{"molecule": "CCCC(CCC)C(=O)O", "note": "[VPA, 2-propylpentanoic acid]", "values": [{"measurement": "free VPA in plasma", "setting": "[1]", "value": "9–15%"}, {"measurement": "brain uptake of carbon-11", "setting": "[2]", "value": "< 0.006 %ID/cc and 0.004 %ID/cc"}, {"measurement": "high uptake in vertebrae", "setting": "[3]", "value": "not observed"}, {"measurement": "uptake in heart", "setting": "[3]; [6]", "value": "remarkably high"}, {"measurement": "fraction of radioactivity in plasma as unmetabolized compound", "setting": "[4]", "value": 98, "unit": "%"}]}, {"molecule": "O=C(O)CCCc1ccccc1", "note": "[PBA, 4-phenylbutyric acid]", "values": [{"measurement": "brain uptake of carbon-11", "setting": "[2]", "value": "< 0.006", "unit": "%ID/cc"}, {"measurement": "high uptake in vertebrae", "setting": "[3]", "value": "not observed"}, {"measurement": "fraction of radioactivity in plasma as unmetabolized compound", "setting": "[4]", "value": 85, "unit": "%"}]}, {"molecule": "CCC[11C](=O)O", "note": "[[^11C]BA, [^11C]Butyric Acid]", "values": [{"measurement": "% unbound in plasma", "setting": "Free fraction in plasma", "value": "82±0.4 (n=2) %"}, {"measurement": "intact [11C]BA fraction in brain", "setting": "[5]", "value": "very low"}, {"measurement": "brain uptake of carbon-11", "setting": "[2]", "value": "~ 0.006 %ID/cc"}, {"measurement": "high uptake in vertebrae", "setting": "[3]", "value": "high uptake"}, {"measurement": "uptake in heart", "setting": "[3]; [6]", "value": "very low"}, {"measurement": "uptake in pancreas", "setting": "[3]; [6]", "value": "relatively high and high"}, {"measurement": "uptake in spleen", "setting": "[3]; [6]", "value": "relatively high and high"}]}, {"molecule": "O=[11C](O)CCCc1ccccc1", "note": "[[^11C]PBA, [^11C]-4-Phenylbutyric Acid]", "values": [{"measurement": "Log D at pH 7.4", "setting": "Lipophilicity at pH 7.4", "value": "−0.20±0.03 (n=6)"}, {"measurement": "% unbound in plasma", "setting": "Free fraction in plasma", "value": "1.5±0.7 (n=6) %"}, {"measurement": "brain uptake of carbon-11", "setting": "[2]", "value": "~ 0.006 %ID/cc"}, {"measurement": "uptake in heart", "setting": "[3]; [6]", "value": "moderate"}, {"measurement": "uptake in liver", "setting": "[3]; [6]", "value": "high"}]}, {"molecule": "CCCC(CCC)[11C](=O)O", "note": "[[^11C]VPA, [^11C]Valproic Acid]", "values": [{"measurement": "Log D at pH 7.4", "setting": "Lipophilicity at pH 7.4", "value": "0.26±0.03 (n=5)"}, {"measurement": "% unbound in plasma", "setting": "Free fraction in plasma", "value": "26±0.3 (n=2) %"}, {"measurement": "uptake in heart", "setting": "[3]; [6]", "value": "exceptionally high"}, {"measurement": "intact fraction in plasma", "setting": "[4]; over 90 min", "value": "> 90", "unit": "%"}]}, {"molecule": "CCCC(=O)O", "note": "[BA, n-butyric acid]", "values": [{"measurement": "brain uptake of carbon-11", "setting": "[2]", "value": "< 0.006", "unit": "%ID/cc"}]}]}
